Source: article PMC4287973, “Tumor cell-specific inhibition of MYC function using small molecule inhibitors of the HUWE1 ubiquitin ligase” (EMBO Molecular Medicine, 2014)

Experiments:
Assay type in all cases: biochemical
SMURF1 = target: T1, SMURF1 (Homo sapiens, UniProt Q9HCE7); assay: in vitro HECT-domain auto-ubiquitination assay, SMURF1
T1 construct: HECT-domains of multiple ligases auto-ubiquitinate in in vitro assays containing both UBA1 and UbcH5b

SMURF2 = target: T2, SMURF2 (Homo sapiens, UniProt Q9HAU4); assay: in vitro HECT-domain auto-ubiquitination assay, SMURF2
T2 construct: HECT-domains of multiple ligases auto-ubiquitinate in in vitro assays containing both UBA1 and UbcH5b
T2 sequence (Q9HAU4 414-748 limits assumed, species assumed): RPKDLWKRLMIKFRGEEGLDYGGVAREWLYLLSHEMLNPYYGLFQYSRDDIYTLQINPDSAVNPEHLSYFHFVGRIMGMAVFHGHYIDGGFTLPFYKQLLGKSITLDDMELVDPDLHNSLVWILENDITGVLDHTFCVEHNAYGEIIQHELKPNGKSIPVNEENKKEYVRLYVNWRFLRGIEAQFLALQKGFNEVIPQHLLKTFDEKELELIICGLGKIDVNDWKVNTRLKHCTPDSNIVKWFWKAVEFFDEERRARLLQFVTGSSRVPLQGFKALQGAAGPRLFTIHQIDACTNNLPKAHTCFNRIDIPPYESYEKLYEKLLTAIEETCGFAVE

UBE3A = target: T3, UBE3A (Homo sapiens, UniProt Q05086); assay: in vitro HECT-domain auto-ubiquitination assay, UBE3A
T3 construct: HECT-domains of multiple ligases auto-ubiquitinate in in vitro assays containing both UBA1 and UbcH5b
T3 sequence (Q05086 518-875 limits assumed): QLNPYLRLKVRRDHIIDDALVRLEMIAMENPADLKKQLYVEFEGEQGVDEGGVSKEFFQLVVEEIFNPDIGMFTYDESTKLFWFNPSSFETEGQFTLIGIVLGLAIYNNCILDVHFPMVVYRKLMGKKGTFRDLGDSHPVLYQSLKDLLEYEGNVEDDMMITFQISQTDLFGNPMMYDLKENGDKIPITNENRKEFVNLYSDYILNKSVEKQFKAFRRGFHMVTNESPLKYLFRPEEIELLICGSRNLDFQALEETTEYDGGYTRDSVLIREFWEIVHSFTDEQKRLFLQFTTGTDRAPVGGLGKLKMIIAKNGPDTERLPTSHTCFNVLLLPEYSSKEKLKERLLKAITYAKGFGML

HECT-domain of HUWE1 = target: T4, HECT-domain of HUWE1 (Homo sapiens, UniProt Q7Z6Z7); assay: HUWE1 auto-ubiquitination assay (DELFIA format); details: UBA1, UbcH5b, read-out: IC50 HUWE1 (in vitro auto-ubiquitination)
T4 construct: 30 ng biotinylated His-HUWE1 (C-terminal ∼350 amino acids = HECT-domain); His; biotin (biotinylated)
T4 sequence (Q7Z6Z7 4038-4374 limits assumed): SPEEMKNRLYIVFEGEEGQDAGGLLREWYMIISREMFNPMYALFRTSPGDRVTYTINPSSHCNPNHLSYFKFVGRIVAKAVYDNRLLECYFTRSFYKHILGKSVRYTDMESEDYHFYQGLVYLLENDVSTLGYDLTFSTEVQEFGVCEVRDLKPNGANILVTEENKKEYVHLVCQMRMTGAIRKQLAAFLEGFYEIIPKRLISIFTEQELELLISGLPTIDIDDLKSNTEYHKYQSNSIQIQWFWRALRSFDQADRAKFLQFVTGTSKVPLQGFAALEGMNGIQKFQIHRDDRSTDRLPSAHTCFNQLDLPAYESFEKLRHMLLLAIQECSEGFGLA
Procedure: To identify potential inhibitors of HUWE1, we configured an in vitro assay of HUWE1 activity for high-throughput screening of small molecules, exploiting the fact that the HECT-domain of HUWE1 auto-ubiquitinates (Pandya et al, [2010]). Briefly, the HECT-domain of HUWE1 was biotin-tagged, attached to streptavidin-coated 96-well plates, and incubated with UBA1, UbcH5b, a ubiquitin-conjugating enzyme that supports HUWE1 activity in vitro (Adhikary et al, [2005]), ATP, and MYC-tagged ubiquitin. Auto-ubiquitination was detected using a europium-labeled MYC antibody and appropriate detection reagents (Fig3A). […] After hit confirmation in repeat experiments, we identified inhibitors of UBA1 or UbcH5b by a thioester assay that measures the covalent binding of UbcH5b to ubiquitin in the presence of UBA1: Compounds active in this assay were eliminated. Furthermore, dose responses were determined in both HUWE1 and NEDD4 auto-ubiquitination assays, and compounds inhibiting NEDD4 auto-ubiquitination were eliminated (Fig3B and unpublished observations). […]
A DELFIA format assay was used to measure the covalent association of ubiquitin with HUWE1 (auto-ubiquitination). […] Europium fluorescence was measured with 50 μl DELFIA enhancement solution (Perkin Elmer) in a Wallac Victor fluorescence plate reader (Perkin Elmer).

HERC1 = target: T5, HERC1 (Homo sapiens, UniProt Q15751); assay: in vitro HECT-domain auto-ubiquitination assay, HERC1
T5 construct: HECT-domains of multiple ligases auto-ubiquitinate in in vitro assays containing both UBA1 and UbcH5b
T5 sequence (Q15751 4501-4848 limits assumed): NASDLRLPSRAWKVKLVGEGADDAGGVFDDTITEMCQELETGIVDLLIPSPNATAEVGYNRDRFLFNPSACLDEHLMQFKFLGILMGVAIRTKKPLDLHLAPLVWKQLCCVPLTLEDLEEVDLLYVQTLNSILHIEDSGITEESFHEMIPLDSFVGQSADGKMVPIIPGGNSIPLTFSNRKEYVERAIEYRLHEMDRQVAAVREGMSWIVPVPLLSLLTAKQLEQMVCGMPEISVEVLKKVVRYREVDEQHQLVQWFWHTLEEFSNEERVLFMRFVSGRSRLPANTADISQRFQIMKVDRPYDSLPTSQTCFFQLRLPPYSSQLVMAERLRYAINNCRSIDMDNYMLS

T1 sequence (Q9HCE7 420-757 limits assumed, species assumed): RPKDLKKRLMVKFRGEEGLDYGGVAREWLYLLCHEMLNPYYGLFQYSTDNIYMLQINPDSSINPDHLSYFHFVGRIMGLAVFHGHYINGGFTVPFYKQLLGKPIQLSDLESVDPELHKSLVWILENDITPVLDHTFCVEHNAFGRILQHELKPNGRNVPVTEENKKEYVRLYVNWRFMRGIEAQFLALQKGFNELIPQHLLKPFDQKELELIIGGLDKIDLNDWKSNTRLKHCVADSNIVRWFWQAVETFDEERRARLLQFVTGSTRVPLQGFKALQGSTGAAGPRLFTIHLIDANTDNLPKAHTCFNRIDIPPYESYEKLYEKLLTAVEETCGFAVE

## Cc1c(C(=O)Nc2ccc(CN)cc2)ncnc1N1CCC(C#N)(c2ccccc2)CC1 [BI8622]
SMURF1
  IC50: > 50 µM
SMURF2
  IC50: > 50 µM
UBE3A
  IC50: > 50 µM
HECT-domain of HUWE1
  IC50: 3.1 µM
HERC1
  IC50: > 50 µM

## NCc1cccc(CNc2ncnc3c(N4CCN(Cc5ccccc5)CC4)ncnc23)c1 [BI8626]
SMURF1
  IC50: > 50 µM
SMURF2
  IC50: > 50 µM
UBE3A
  IC50: > 50 µM
HECT-domain of HUWE1
  IC50: 0.9 µM
HERC1
  IC50: > 50 µM
